Where only a bound is given, the exact number is not on record here.

One test deals with T1, cyclooxygenase (Ovis aries, UniProt P05979).
T1 construct: suspension of sheep seminal vesicle microsomes; from tissue; host or cells: sheep seminal vesicle microsomes
T1 sequence (P05979 25-600): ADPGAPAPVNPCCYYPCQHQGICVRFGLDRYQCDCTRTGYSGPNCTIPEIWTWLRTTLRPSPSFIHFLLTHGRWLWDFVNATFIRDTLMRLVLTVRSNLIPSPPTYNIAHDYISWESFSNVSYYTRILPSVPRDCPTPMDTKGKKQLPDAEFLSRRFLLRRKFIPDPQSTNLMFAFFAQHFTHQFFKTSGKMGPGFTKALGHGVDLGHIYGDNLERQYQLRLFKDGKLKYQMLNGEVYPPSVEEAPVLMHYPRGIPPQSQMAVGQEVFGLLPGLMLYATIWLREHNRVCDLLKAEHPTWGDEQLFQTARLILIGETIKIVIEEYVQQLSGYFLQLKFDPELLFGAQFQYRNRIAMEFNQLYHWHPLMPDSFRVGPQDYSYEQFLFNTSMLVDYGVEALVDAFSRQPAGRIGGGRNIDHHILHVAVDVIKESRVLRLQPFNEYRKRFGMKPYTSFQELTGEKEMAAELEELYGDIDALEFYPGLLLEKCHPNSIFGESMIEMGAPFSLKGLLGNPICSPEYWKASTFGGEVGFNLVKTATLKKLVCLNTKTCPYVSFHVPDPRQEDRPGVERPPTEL
As to the kind of experiment: Inhibition of cyclooxygenase in sheep seminal vesicle microsomes ([14C]-arachidonic acid, TLC). Format: biochemical. The following applies: pH 7.0, read-out: IC50 for inhibition of cyclooxygenase (B). Here is the method:
The effect of the test compounds on the activity of cyclooxygenase was tested using a suspension of sheep seminal vesicle microsomes in 50 mM potassium phosphate buffer of pH 7.0 which was incubated with the solvent only (as control) or with the test compound and [^14 C]-arachidonic acid. The "IC50 -values (B)" (i.e. the concentration of the test compound which causes an 50%-inhibition of the cyclooxygenase) were determined by thin layer chromatography and by means of a TLC-Linear-Analyzer.

Test [1] concerns endotoxin/galactosamine-induced hepatitis, increase of liver specific enzymes in the serum. As to the kind of experiment: Endotoxin/galactosamine-induced hepatitis in mice (septic shock model). Type of test: in vivo. The following applies: 10 mg/kg i.p. for each of five applications, 8 hours after endotoxin. Here is the method: As a test model to evaluate the effects of test compounds in septic shock the endotoxin/galactosamine-induced hepatitis in mice has been used. […] The intraperitoneal application of 5-lipoxygenase inhibitors 30 minutes before, simultaneously with and 2, 4 and 6 hours after the application of endotoxin inhibitis the hepatitis-induced increase of the serum activities of these enzymes. On administration of compounds of the formula I in doses of 10 mg/kg for each of the five applications the following percentual inhibitions of the increase of the enzymes GPT and SDH were achieved (the increase of enzymatic activities in control animals was set at 100%): […]

In the next test the target is T2, 5-lipoxygenase (Rattus norvegicus, UniProt P12527).
T2 construct: endogenous in cells; host or cells: rat basophilic leukemia cells
T2 sequence (P12527 1-673): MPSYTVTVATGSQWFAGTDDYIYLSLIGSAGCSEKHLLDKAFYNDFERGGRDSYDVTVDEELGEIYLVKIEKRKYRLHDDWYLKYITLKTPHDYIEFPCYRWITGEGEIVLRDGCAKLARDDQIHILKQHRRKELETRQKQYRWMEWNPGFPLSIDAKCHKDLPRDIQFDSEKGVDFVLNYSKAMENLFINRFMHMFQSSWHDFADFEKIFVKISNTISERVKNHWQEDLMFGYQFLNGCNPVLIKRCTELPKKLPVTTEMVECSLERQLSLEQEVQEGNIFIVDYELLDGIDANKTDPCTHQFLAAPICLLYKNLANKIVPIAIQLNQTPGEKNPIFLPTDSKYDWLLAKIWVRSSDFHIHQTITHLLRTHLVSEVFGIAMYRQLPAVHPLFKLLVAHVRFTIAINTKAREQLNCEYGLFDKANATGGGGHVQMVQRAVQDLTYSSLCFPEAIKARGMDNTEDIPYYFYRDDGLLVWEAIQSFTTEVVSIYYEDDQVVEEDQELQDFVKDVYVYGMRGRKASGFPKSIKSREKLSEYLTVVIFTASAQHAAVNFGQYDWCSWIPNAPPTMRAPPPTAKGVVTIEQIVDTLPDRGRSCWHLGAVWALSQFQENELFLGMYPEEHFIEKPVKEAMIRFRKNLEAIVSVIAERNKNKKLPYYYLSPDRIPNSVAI
Put plainly: Inhibition of 5-lipoxygenase in rat basophilic leukemia cells ([14C]-arachidonic acid, TLC). Format: cell-based. Particulars: for IC50: rat basophilic leukemia cells, standardized to nordihydroguaiaretic acid; for Quotient (IC50 cyclooxygenase (B) / 5-lipoxygenase (A)): selectivity. The method, then: To 1 ml each of this suspension there was added indomethacin (10 μM) and calcium chlorid (2 mM) and then the mixture was incubated in presence or absence of a test compound for 3 minutes and thereafter with 20 μM of [^14 C]-arachidonic acid and 20 μM of the calcium ionophore A 23 187 for 10 minutes. The reaction was stopped by adding 20 μl of glacial acetic acid and then the mixture was extracted with ethyl acetate to isolate the metabolites of arachidonic acid formed by the enzymatic action of 5-lipoxygenase. These were separated by thin layer chromatography using a solvent mixture known to be suitable for leukotriene analysis [c.f. Jakschik et al., Biochem. Biophys. Res. Commun. 102, 624 (1981)]. The distribution of the radioactivity to the different metabolites was measured using a TLC Linear Analyzer. By bringing into relationship the percentages of the amount of the products formed under the action of 5-lipoxygenase (5-HETE, isomers of LTB4) in the controls (tests performed in absence of test compounds) and in the presence of test compounds of formula I in different concentrations the "IC50 -value" (i.e. the concentration of the test compound which causes an 50%-inhibition of the 5-lipoxygenase) is determined. For standardization these values then were brought into relationship to the IC50 -values determined in the same manner for the standard compound nordihydroguaiaretic acid.

Test [2] relates to ex vivo iLTB4-formation (5-lipoxygenase activity) in whole blood of rats. As to the kind of experiment: Inhibition of ex vivo iLTB4-formation in rat whole blood after oral administration. Set-up: species or system male rats (Wistar strain). Particulars: for inhibition in vivo at 21.5 mg/kg: Rattus norvegicus, 21.5 mg/kg oral, blood taken 1 hour later. The method, then: The bioavailability of the compounds of formula I after oral administration was characterized by means of an ex vivo biochemical assessment method described by Tateson et al. in Brit. Pharmacol., 94, 528 (1988).
Compounds of formula I were orally administered to male rats (Wistar strain). 1 hour later the rats were bled by heart puncture in letal CO2 -narcosis. The 5-lipoxygenase reaction was triggered by the addition of the calcium-ionophor A23187 to an end concentration of […] to aliquots of rat whole blood and subsequent incubation for 30 minutes at 37° C. in a water bath. At the end of the incubation the samples were centrifuged to collect the cell free plasma. The concentration of the immunoreactive LTB4 (iLTB4 ng/ml) in each plasma sample was determined by a LTB4 -radioimmunoassay (^3 H-LTB4 -RIA, Amersham) by means of a LTB4 -standard curve in diluted rat plasma. For calculation of the percent inhibition of ex vivo iLTB4 -formation in whole blood of rats treated with the compounds of formula I rats treated with appropiate vehicle solution were included in all experiments, aliquots of their blood were run in parallel and were processed in the same way as described. The mean iLTB4 -formation per ml plasma of these vehicle treated control rats served as 100 percent value of normal control 5-lipoxygenase activity. The percent inhibition of the ex vivo iLTB4 -formation after oral administration of compounds of formula I was calculated as follows: 100 minus 100 times the quotient of the mean iLTB4 concentration per ml plasma of the rats treated with compounds of formula I […] and the mean iLTB4 concentration per ml plasma of the control rats.

The subject of another test is bronchoconstriction. As to the kind of experiment: Antiasthmatic activity: ovalbumin-induced bronchoconstriction in passively sensitized guinea pigs (Konzett-Rössler). Format: in vivo. Particulars: 100 mg/kg oral, 0.2 mg/kg i.v. ovalbumin challenge, 10 minutes. The method, then: The antiasthmatic activity of compounds of formula I was tested in narcotised and ventilated guinea pigs. For the induction of an asthmatic reaction, the animals were passively sensitized by a single intraperitoneal injection of anti-ovalbumin serum. 48 hours afterwards the asthmatic reaction was elicited by intravenous challenge with 0.2 mg/kg ovalbumin. The immediately resulting bronchoconstriction was measured as increase in overflow according to the Konzett-Rbssler method for a period of 10 minutes. Effects caused by histamine, serotonin and sympathic counterreaction were eliminated by intravenous pretreatment with 2.15 mg/kg mepyramine, 46.4 μg/kg propranolol, 4.64 mg/kg atropin and 1 mg/kg methysergide, all given 5 minutes before challenge.
After oral administration of the product of Example 5a or of the product of Example 9, in doses of 100 mg/kg each, the bronchoconstriction was inhibited by 54% or by 67%, respectively.

A word on the IC50: it is the concentration needed to halve the response being measured. In the case of `CC(=O)N(O)Cc1cccc(C#Cc2ccc3ccccc3c2)c1` [Example 1, N-[3-(Naphth-2-yl-ethynyl)-benzyl]-acetohydroxamic acid], on cyclooxygenase, the IC50 is more than 500000 nM. Moreover, in test [1], the “Inhibition of increase of GPT” value is 47% and the “Inhibition of increase of SDH” value came to 58%. For the same compound, at 5-lipoxygenase, the IC50 came to 670 nM and the “Quotient (IC50 cyclooxygenase (B) / 5-lipoxygenase (A))” value was more than 746.

Regarding `COc1ccc(C#Cc2cccc(CN(O)C(C)=O)c2)cc1` [Example 4, N-[3-(4-Methoxy-phenylethynyl)-benzyl]-acetohydroxamic acid], in test [1], the “Inhibition of increase of GPT” value is listed as 87% and the “Inhibition of increase of SDH” value is given as 81%.

As usually defined, the inhibition in vivo is the share of the control response that was lost under treatment. For `COc1ccc(C#Cc2cccc(C(C)N(O)C(C)=O)c2)cc1` (stereo not drawn) [Example 5a], the inhibition in vivo at 21.5 mg/kg in test [2] came to 75%. Moreover, the IC50 on cyclooxygenase worked out at 440000 nM; against 5-lipoxygenase it was 290 nM. The “Quotient (IC50 cyclooxygenase (B) / 5-lipoxygenase (A))” value on 5-lipoxygenase worked out at 1517. For the same compound, the inhibition of bronchoconstriction in the test with bronchoconstriction came to 54%.

Take `COc1ccc(C#Cc2cccc(C(C)N(O)C(N)=O)c2)cc1` (stereo not drawn) [Example 9, N-Hydroxy-N-{1-[3-(4-methoxy-phenylethynyl)-phenyl]-ethyl}-urea]: the “inhibition of the ex vivo iLTB4-formation” value in test [2] (10 mg/kg oral) is recorded as 86%. Also, at cyclooxygenase, the 50% inhibitory concentration (IC50) was 100000 nM. For the same compound, in test [1], the “Inhibition of increase of GPT” value is 94% and the “Inhibition of increase of SDH” value stood at 90%. At 5-lipoxygenase, the IC50 is 150 nM and the “Quotient (IC50 cyclooxygenase (B) / 5-lipoxygenase (A))” value is given as 667. Besides, the inhibition of bronchoconstriction in the test on bronchoconstriction is recorded as 67%.

For `CC(c1cccc(C#Cc2ccc(Cl)cc2)c1)N(O)C(N)=O` (stereo not drawn) [Example 10d, N-Hydroxy-N-{1-[3-(4-chloro-phenylethynyl)-phenyl]-ethyl}-urea], at 21.5 mg/kg the inhibition in vivo in test [2] was 99%. For the same compound, the IC50 on cyclooxygenase came to 500000 nM; against 5-lipoxygenase it was 550 nM. Also, the “Quotient (IC50 cyclooxygenase (B) / 5-lipoxygenase (A))” value at 5-lipoxygenase was determined as 909.

The compound `CC(c1cccc(C#Cc2ccc(C(F)(F)F)cc2)c1)N(O)C(N)=O` (stereo not drawn) [Example 11, N-Hydroxy-N-{1-[3-(4-trifluoromethyl-phenylethynyl)-phenyl]-ethyl}-urea] came in with an inhibition in vivo at 21.5 mg/kg in test [2] of 76%. Also, the IC50 on cyclooxygenase is more than 500000 nM. For the same compound, at 5-lipoxygenase, the IC50 came to 670 nM and the “Quotient (IC50 cyclooxygenase (B) / 5-lipoxygenase (A))” value is more than 746.

Consider `CC(c1ccc(C#Cc2cccs2)cc1)N(O)C(N)=O` (stereo not drawn) [Example 15, N-Hydroxy-N-{1-[4-(thien-2-yl-ethynyl)-phenyl]-ethyl}-urea], for which 21.5 mg/kg produced 77% inhibition in vivo in test [2]. For the same compound, the IC50 on cyclooxygenase is 500000 nM; at 5-lipoxygenase it was 410 nM. The “Quotient (IC50 cyclooxygenase (B) / 5-lipoxygenase (A))” value on 5-lipoxygenase is 1220.

The compound `CC(c1ccc(C#Cc2ccsc2)cc1)N(O)C(N)=O` (stereo not drawn) [Example 16b, N-Hydroxy-N-{1-[4-(thien-3-yl-ethynyl)-phenyl]-ethyl}-urea] returned an inhibition in vivo at 21.5 mg/kg in test [2] of 91%. Besides, the IC50 on cyclooxygenase was 500000 nM; at 5-lipoxygenase it was 290 nM. The “Quotient (IC50 cyclooxygenase (B) / 5-lipoxygenase (A))” value at 5-lipoxygenase amounted to 1724.

`NC(=O)N(O)Cc1ccc(C#Cc2ccsc2)cc1` [Example 16f, N-Hydroxy-N-[4-(thien-3-yl-ethynyl)-benzyl]-urea] came in with an inhibition in vivo at 21.5 mg/kg in test [2] of 97%. In addition, the IC50 at cyclooxygenase came out at 500000 nM; against 5-lipoxygenase, 410 nM. The “Quotient (IC50 cyclooxygenase (B) / 5-lipoxygenase (A))” value at 5-lipoxygenase came out at 1220.

The record behind these values is patent publication US5202349A, “Substituted phenylacetylenes, pharmaceutical compositions containing these compounds and processes for the preparation of these compounds and compositions” (Gruenenthal GmbH, priority 1990, dated 1993).
